Assay results reported in patent publication USRE30241E, “Esters of 3-(hydroxy or hydroxymethyl)-4-hydroxyphenyl aminomethyl ketones” (Sterling Drug Inc., priority 1970, dated 1980).
Like-named read-outs stand apart in the source and are kept apart here.

Assays:
[1] = test system: carbachol- or histamine-induced bronchoconstriction; test: Bronchodilator Test Method I, anesthetized dog, intraduodenal activity; type: in vivo; conditions: Canis lupus familiaris, read-out: Bronchodilation; for inhibition in vivo at 0.45 mg/kg: 450 mcg/kg (salt) intraduodenal; for inhibition in vivo at 0.038 mg/kg: 38 mcg/kg (salt) intraduodenal
Method: (§1) Male and female dogs weighing 9-18 kg. each were anesthetized with pentobarbital sodium (30 mg./kg. i.v.). Each animal, with thorax opened at the midsternum, was maintained under artificial ventilation using a constant volume pump (250 ml./stroke; 10 to 12 strokes per minute) attached to the tracheal cannula. The flow of air was controlled by a glass or plastic valve which closed and opened respectively on inflow and outflow of the air to and from the tracheal cannula. Bronchoconstriction and/or bronchodilatation were measured from changes in the basal airway pressure reflected by a transducer attached to the sidearm of the cannula relayed to a polygraph.
Control bronchoconstrictions were induced by intravenous injections of carbachol (choline chloride carbamate) in doses ranging from 4 to 6 micrograms per kilogram or histamine diphosphate in doses ranging from 35 to 45 micrograms per kilogram. In the majority of test animals, the above doses of constrictor agents produced a 100-200 percent increase in the normal airway pressure or amplitude.
Injections were repeated at 20-30 minutes.
In intraduodenal studies, in the dog prepared for bronchodilation measurements, the duodenal segment of the small intestine was made easily accessible through a small mid-line incision in the abdomen. The test solution was injected into the duodenum using a fine needle. Commencing 5 minutes after medication, the degree and duration of bronchodilation were tested by injecting a control dose of carbachol or histamine at intervals of 30-60 minutes until the recovery or near-recovery was apparent. In some dogs showing an early recovery, a reference drug was also tested in the same dog 1.5-2 hours after the first medicine.

[2] = test system: carbachol- or histamine-induced bronchoconstriction; test: Bronchodilator Test Method I, anesthetized dog, intravenous activity; type: in vivo; conditions: Canis lupus familiaris, read-out: Bronchodilatation; for inhibition in vivo at 0.02 mg/kg: 20 mcg/kg i.v.; for inhibition in vivo at 0.1 mg/kg: 100 mcg/kg i.v.; for inhibition in vivo at 0.005 mg/kg: 5 mcg/kg i.v.; for inhibition in vivo at 0.0012 mg/kg: 1.2 mcg/kg i.v.; for inhibition in vivo at 0.006 mg/kg: 6.0 mcg/kg i.v.
Method: Bronchodilator activity was tested in anesthetized dogs (Test Method I) and in vitro on the perfused guinea pig lung (Test Method II), using the following pharmacological test procedures
as §1
Control bronchoconstrictions were induced by intravenous injections of carbachol (choline chloride carbamate) in doses ranging from 4 to 6 micrograms per kilogram or histamine diphosphate in doses ranging from 35 to 45 micrograms per kilogram.
Solutions of the test compounds were prepared in distilled water or in saline (for infusion). […] These solutions were then tested for bronchodilator activity in three ways, viz. (1) by mixing a graded dose of test compound with the constant does of carbachol or histamine in a syringe and injecting the mixture into the femoral vein of the dog, (2) by producing the bronchoconstriction first and injecting the test compound at the time of maximum constriction, and (3) by injecting the test compound first followed by carbachol or histamine in 1-10 minutes. Injections were repeated at 20-30 minutes. Bronchodilator values were obtained by measuring the areas under the response polygraph tracings (the first 5 munite period) of carbachol or histamine controls and of the experimentals using a planimeter. Decrease in the area thus measured was expressed as a percent bronchodilatation in reference to the area of control carbachol or histamine constriction. The mean bronchodilatations (the reductions in constrictions) were plotted against the doses administered and the mean effective dose (ED50) was estimated in micrograms/kilogram from the does-response curves. Blood pressure recording was taken from the femoral artery using an arterial transducer relayed to a polygraph.

Structure (SMILES): Cc1ccc(C(=O)Oc2ccc(C(O)CN)cc2OC(=O)c2ccc(C)cc2)cc1 (stereo not drawn) [Example 127, 3,4-bis(p-toluyloxy)-alpha-(aminomethyl)benzyl alcohol methanesulfonate]
- inhibition in vivo at 0.45 mg/kg ([1]; 5 min, 5 min): 16%
- inhibition in vivo at 0.45 mg/kg ([1]; 10 min, 10 min): 16%
- inhibition in vivo at 0.45 mg/kg ([1]; 1 h, 60 min): 0%
- inhibition in vivo at 0.45 mg/kg ([1]; […], after 90 min): 0%

Structure (SMILES): CC(C)CC(=O)OCc1cc(C(O)CNC(C)(C)C)ccc1OC(=O)CC(C)C (stereo not drawn) [Example 136, 3-(isovaleryloxymethyl)-4-(isovaleryloxy)-alpha-(tert-butylaminomethyl)benzyl alcohol methanesulfonate]
- inhibition in vivo at 0.02 mg/kg ([2]; 5 min, 5 min): 36%
- inhibition in vivo at 0.1 mg/kg ([2]; 5 min, 5 min): 82%
- inhibition in vivo at 0.02 mg/kg ([2]; 0.5 h, 30 min): 53%
- inhibition in vivo at 0.1 mg/kg ([2]; 0.5 h, 30 min): 80%
- inhibition in vivo at 0.005 mg/kg ([2]; 1 h, 60 min): 47%
- inhibition in vivo at 0.02 mg/kg ([2]; 1 h, 60 min): 57%
- inhibition in vivo at 0.1 mg/kg ([2]; 1 h, 60 min): 70%
- inhibition in vivo at 0.02 mg/kg ([2]; 2 h, 120 min): 40%
- inhibition in vivo at 0.1 mg/kg ([2]; 2 h, 120 min): 60%
- inhibition in vivo at 0.005 mg/kg ([2]; 3 h, 180 min): 53%
- inhibition in vivo at 0.02 mg/kg ([2]; 3 h, 180 min): 12%
- inhibition in vivo at 0.1 mg/kg ([2]; 3 h, 180 min): 42%
- inhibition in vivo at 0.005 mg/kg ([2]; 4 h, 240 min): 46%
- inhibition in vivo at 0.02 mg/kg ([2]; 4 h, 240 min): 7%
- inhibition in vivo at 0.005 mg/kg ([2]; 5 h, 300 min): 46%
- inhibition in vivo at 0.02 mg/kg ([2]; 5 h, 300 min): 12%
- inhibition in vivo at 0.1 mg/kg ([2]; 5 h, 300 min): 32%

Structure (SMILES): CC(=O)Oc1ccc(C(O)CNC(C)(C)C)cc1OC(=O)c1ccc(C)cc1 (stereo not drawn) [Example 146, 3-(p-toluyloxy)-4-acetoxy-alpha-(tert-butylaminomethyl)benzyl alcohol methanesulfonate]
- inhibition in vivo at 0.0012 mg/kg ([2]; 5 min, 5 min): 31%
- inhibition in vivo at 0.006 mg/kg ([2]; 5 min, 5 min): 66%
- inhibition in vivo at 0.0012 mg/kg ([2]; 0.5 h, 30 min): 38%
- inhibition in vivo at 0.006 mg/kg ([2]; 0.5 h, 30 min): 57%
- inhibition in vivo at 0.0012 mg/kg ([2]; 1 h, 60 min): 44%
- inhibition in vivo at 0.006 mg/kg ([2]; 1 h, 60 min): 63%
- inhibition in vivo at 0.0012 mg/kg ([2]; 3 h, 180 min): 20%
- inhibition in vivo at 0.0012 mg/kg ([2]; 4 h, 240 min): 20%
- inhibition in vivo at 0.038 mg/kg ([1]; 5 min, 5 min): 60%
- inhibition in vivo at 0.038 mg/kg ([1]; 0.5 h, 30 min): 39%
- inhibition in vivo at 0.038 mg/kg ([1]; 1 h, 60 min): 39%
- inhibition in vivo at 0.038 mg/kg ([1]; 2 h, 120 min): 26%
- inhibition in vivo at 0.038 mg/kg ([1]; 3 h, 180 min): 33%
- inhibition in vivo at 0.038 mg/kg ([1]; 4 h, 240 min): 24%
- inhibition in vivo at 0.038 mg/kg ([1]; 5 h, 300 min): 13%
